Molecular target: T1, human CRHR2-alpha (Homo sapiens, UniProt Q13324)
T1 sequence (Q13324 1-411): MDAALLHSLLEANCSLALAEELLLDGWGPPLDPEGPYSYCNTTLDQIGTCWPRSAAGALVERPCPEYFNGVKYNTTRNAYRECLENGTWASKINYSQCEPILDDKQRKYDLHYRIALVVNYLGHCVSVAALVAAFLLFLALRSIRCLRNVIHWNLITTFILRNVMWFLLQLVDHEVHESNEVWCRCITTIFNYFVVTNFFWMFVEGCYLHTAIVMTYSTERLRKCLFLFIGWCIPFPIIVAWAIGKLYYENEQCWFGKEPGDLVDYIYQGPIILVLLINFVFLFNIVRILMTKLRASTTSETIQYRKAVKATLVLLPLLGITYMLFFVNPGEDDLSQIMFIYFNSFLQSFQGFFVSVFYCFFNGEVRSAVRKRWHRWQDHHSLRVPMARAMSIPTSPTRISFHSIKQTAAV
Assay: cAMP functional assay for human CRHR2 (LANCE Ultra cAMP, TR-FRET)
Type: cell-based
Conditions: CHO-K1 cells expressing human CRHR2-alpha, agonist human urocortin2 at EC80, cAMP; read-out: IC50 against CRHR2
Method in brief: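 Antagonism measured in CHO-K1 cells stably expressing the receptor, serum-starved 7 h then cryopreserved. Thawed cells in HBSS buffer with 0.1% BSA, 0.5 mM IBMX, 5 mM Hepes pH 7.4 were preincubated with compound 30 min at 25° C, then stimulated 30 min with EC80 agonist: urocortin2 for CRHR2, CRF for CRHR1.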

Q: `CNC(=O)c1ccc(-n2c(=O)n(C[C@H]3CC[C@H](NC(=O)c4cc(Cl)cnc4C)CC3)c3cccc(F)c32)cn1` [Example 235, 5-(3-(((1r,4r)-4-(5-chloro-2-methylnicotinamido)cyclo-hexyl)methyl)-7-fluoro-2-oxo-2,3-dihydro-1H-benzo[d]imidazol-1-yl)-N-methylpicolinamide] was tested. Which IC50 did it give?
A: < 300 nM

Q: With `COc1ccc(-n2c(=O)n(C[C@H]3CC[C@H](NC(=O)c4cc(Cl)cnc4Cl)CC3)c3ccccc32)cn1` [Example 237, 2,5-dichloro-N-((1r,4r)-4-((3-(6-methoxypyridin-3-yl)-2-oxo-2,3-dihydro-1H-benzo[d]imidazol-1-yl)methyl)cyclo-hexyl)nicotinamide] as the compound, how does the IC50 read?
A: < 300 nM

Q: For `Cc1ncc(Cl)cc1C(=O)N[C@H]1CC[C@H](Cn2c(=O)n(-c3cccc4c3CCC4)c3ccncc32)CC1` [Example 238, 5-chloro-N-((1r,4r)-4-((1-(2,3-dihydro-1H-inden-4-yl)-2-oxo-1H-imidazo[4,5-c]pyridin-3(2H)-yl)methyl)cyclohexyl)-2-methylnicotinamide], which IC50 is on record?
A: < 300 nM

Q: How did the IC50 turn out when `Cc1ncc(Cl)cc1C(=O)N[C@H]1CC[C@H](Cn2c(=O)n(-c3cccnc3C#N)c3ccccc32)CC1` [Example 239, 5-chloro-N-((1r,4r)-4-((3-(2-cyanopyridin-3-yl)-2-oxo-2,3-dihydro-1H-benzo[d]imidazol-1-yl)methyl)cyclohexyl)-2-methylnicotinamide] was run?
A: < 300 nM

Q: How did the IC50 turn out when `CNC(=O)c1ccc(-n2c(=O)n(C[C@H]3CC[C@H](NC(=O)c4cc(Cl)cnc4C(F)(F)F)CC3)c3ccccc32)cn1` [Example 240, 5-(3-(((1r,4r)-4-(5-chloro-2-(trifluoromethyl)nicotina-mido)cyclohexyl)methyl)-2-oxo-2,3-dihydro-1H-benzo [d]imidazol-1-yl)-N-methylpicolinamide] was run?
A: < 300 nM

Q: For `Cc1ncc(Cl)cc1C(=O)N[C@H]1CC[C@H](Cn2c(=O)n(Cc3ccccc3C#N)c3ccccc32)CC1` [Example 241, 5-chloro-N-((1r,4r)-4-((3-(2-cyanobenzyl)-2-oxo-2,3-dihydro-1H-benzo[d]imidazol-1-yl)methyl)cyclohexyl)-2-methylnicotinamide], which IC50 is on record?
A: < 300 nM

Q: With `Cc1ncc(Cl)cc1C(=O)N[C@H]1CC[C@H](Cn2c(=O)n(Cc3cccc(C#N)c3)c3ccccc32)CC1` [Example 242, 5-chloro-N-((1r,4r)-4-((3-(3-cyanobenzyl)-2-oxo-2,3-dihydro-1H-benzo[d]imidazol-1-yl)methyl)cyclohexyl)-2-methylnicotinamide] as the compound, how does the IC50 read?
A: < 300 nM

Q: For `Cc1ncc(Cl)cc1C(=O)N[C@H]1CC[C@H](Cn2c(=O)n(-c3ccc4c(C(N)=O)noc4c3)c3ccccc32)CC1` [Example 243, 6-(3-(((1r,4r)-4-(5-chloro-2-methylnicotinamido)cyclohexyl)methyl)-2-oxo-2,3-dihydro-1H-benzo[d]imidazol-1-yl)benzo[d]isoxazole-3-carboxamide], which IC50 is on record?
A: < 300 nM

Q: How did the IC50 turn out when `CNC(=O)c1noc2cc(-n3c(=O)n(C[C@H]4CC[C@H](NC(=O)c5cc(Cl)cnc5C)CC4)c4ccccc43)ccc12` [Example 244, 6-(3-(((1r,4r)-4-(5-chloro-2-methylnicotinamido)cyclohexyl)methyl)-2-oxo-2,3-dihydro-1H-benzo[d]imidazol-1-yl)-N-methylbenzo[d]isoxazole-3-carboxamide] was run?
A: < 300 nM

Q: Which IC50 does the source give for `Cc1ncc(Cl)cc1C(=O)N[C@H]1CC[C@H](Cn2c(=O)n(-c3ccc4c(C(=O)N(C)C)noc4c3)c3ccccc32)CC1` [Example 245, 6-(3-(((1r,4r)-4-(5-chloro-2-methylnicotinamido)cyclohexyl)methyl)-2-oxo-2,3-dihydro-1H-benzol[d]imidazol-1-yl)-N,N-dimethylbenzo[d]isoxazole-3-carboxamide] here?
A: < 300 nM

Q: With `COc1cccc(-n2c(=O)n(C[C@H]3CC[C@H](NC(=O)c4cc(Cl)cnc4C)CC3)c3ccccc32)c1C#N` [Example 246, 5-chloro-N-((1r,4r)-4-((3-(2-cyano-3-methoxyphenyl)-2-oxo-2,3-dihydro-1H-benzo [d]imidazol-1-yl)methyl)cyclohexyl)-2-methyl-nicotinamide] as the compound, how does the IC50 read?
A: < 300 nM

Q: How did the IC50 turn out when `Cc1ccc(-n2c(=O)n(C[C@H]3CC[C@H](NC(=O)c4cc(Cl)cnc4C)CC3)c3ccccc32)c(C#N)c1` [Example 247, 5-chloro-N-((1r,4r)-4-((3-(2-cyano-4-methylphenyl)-2-oxo-2,3-dihydro-1H-benzo[d]imidazol-1-yl)methyl)cyclo-hexyl)-2-methylnicotinamide] was run?
A: < 300 nM

Q: Which IC50 does the source give for `Cc1ncc(Cl)cc1C(=O)N[C@H]1CC[C@H](Cn2c(=O)n(-c3cnccc3C#N)c3ccccc32)CC1` [Example 248, 5-chloro-N-((1r,4r)-4-((3-(4-cyanopyridin-3-yl)-2-oxo-2,3-dihydro-1H-benzo[d]imidazol-1-yl)methyl)cyclohexyl)-2-methylnicotinamide] here?
A: < 300 nM

Q: How did the IC50 turn out when `Cc1ncc(Cl)cc1C(=O)N[C@H]1CC[C@H](Cn2c(=O)n(-c3ccncc3C#N)c3ccccc32)CC1` [Example 249, 5-chloro-N-((1r,4r)-4-((3-(3-cyanopyridin-4-yl)-2-oxo-2,3-dihydro-1H-benzo[d]imidazol-1-yl)methyl)cyclohexyl)-2-methylnicotinamide] was run?
A: < 300 nM

Q: With `CCn1ncc2cc(-n3c(=O)n(C[C@H]4CC[C@H](NC(=O)c5cc(Cl)cnc5C)CC4)c4ccccc43)cnc21` [Example 250, 5-chloro-N-((1r,4r)-4-((3-(1-ethyl-1H-pyrazolo[3,4-b]pyridin-5-yl)-2-oxo-2,3-dihydro-1H-benzo[d]imidazol-1-yl)methyl)cyclo-hexyl)-2-methylnicotinamide] as the compound, how does the IC50 read?
A: < 300 nM

Q: `COc1ccc(Cn2c(=O)n(C[C@H]3CC[C@H](NC(=O)c4cc(Cl)cnc4C)CC3)c3cccnc32)c(OC)c1` [Example 251, 5-chloro-N-((1r,4r)-4-((3-(2,4-dimethoxybenzyl)-2-oxo-2,3-dihydro-1H-imidazo[4,5-b]pyridin-1-yl)methyl)cyclo-hexyl)-2-methylnicotinamide] was tested. Which IC50 did it give?
A: < 300 nM

Q: Which IC50 does the source give for `Cc1ncc(Cl)cc1C(=O)N[C@H]1CC[C@H](Cn2c(=O)n(-c3cnc4c(cnn4CC4CC4)c3)c3ccccc32)CC1` [Example 252, 5-chloro-N-((1r,4r)-4-((3-(1-(cyclopropylmethyl)-1H-pyrazolo[3,4-b]pyridin-5-yl)-2-oxo-2,3-dihydro-1H-benzo [d]imidazol-1-yl)methyl)cyclo-hexyl)-2-methylnicotinamide] here?
A: < 300 nM

Q: Which IC50 does the source give for `Cc1ncc(Cl)cc1C(=O)N[C@H]1CC[C@H](Cn2c(=O)n(-c3cnc4c(cnn4CCO)c3)c3ccccc32)CC1` [Example 253, 5-chloro-N-((1r,4r)-4-((3-(1-(2-hydroxyethyl)-1H-pyrazolo[3,4-b]pyridin-5-yl)-2-oxo-2,3-dihydro-1H-benzo[d]imidazol-1-yl)methyl)cyclohexyl)-2-methylnicotinamide] here?
A: < 300 nM

Q: For `CCn1cc2cc(-n3c(=O)n(C[C@H]4CC[C@H](NC(=O)c5cc(Cl)cnc5C)CC4)c4ccccc43)cnc2n1` [Example 254, 5-chloro-N-((1r,4r)-4-((3-(2-ethyl-2H-pyrazolo[3,4-b]pyridin-5-yl)-2-oxo-2,3-dihydro-1H-benzo[d]imidazol-1-yl)methyl)cyclohexyl)-2-methylnicotinamide], which IC50 is on record?
A: < 300 nM

Q: How did the IC50 turn out when `Cc1ncc(Cl)cc1C(=O)N[C@H]1CC[C@H](Cn2c(=O)n(-c3ccc4c(c3)nnn4C)c3ccccc32)CC1` [Example 255, 5-chloro-2-methyl-N-((1r,4r)-4-((3-(1-methyl-1H-benzo[d] [1,2,3]triazol-5-yl)-2-oxo-2,3-dihydro-1H-benzo[d]imidazol-1-yl)methyl)cyclohexyl) nicotinamide] was run?
A: < 300 nM

Q: How did the IC50 turn out when `Cc1ncc(Cl)cc1C(=O)N[C@H]1CC[C@H](Cn2c(=O)n(-c3ccccc3Cl)c3cccnc32)CC1` [Example 256, 5-chloro-N-((1r,4r)-4-((1-(2-chlorophenyl)-2-oxo-1H-imidazo[4,5-b]pyridin-3(2H)-yl)methyl)cyclohexyl)-2-methylnicotinamide] was run?
A: < 300 nM

Q: `Cc1ncc(Cl)cc1C(=O)N[C@H]1CC[C@H](Cn2c(=O)n(-c3ccccc3C(F)(F)F)c3cccnc32)CC1` [Example 257, 5-chloro-2-methyl-N-((1r,4r)-4-((2-oxo-1-(2-(trifluoro-methyl)phenyl)-1H-imidazo [4,5-b]pyridin-3(2H)-yl)methyl)cyclohexyl)nicotinamide] was tested. Which IC50 did it give?
A: < 300 nM

Q: For `CNC(=O)c1ccc(-n2c(=O)n(C[C@H]3CC[C@H](NC(=O)c4cc(Cl)cnc4C)CC3)c3ccc(OC)cc32)cn1` [Example 258, 5-(3-(((1r,4r)-4-(5-chloro-2-methylnicotinamido)cyclo-hexyl)methyl)-6-methoxy-2-oxo-2,3-dihydro-1H-benzo [d]imidazol-1-yl)-N-methylpicolinamide], which IC50 is on record?
A: < 300 nM

Q: Which IC50 does the source give for `COc1ccc(C#N)c(-n2c(=O)n(C[C@H]3CC[C@H](NC(=O)c4cc(Cl)cnc4C)CC3)c3ccccc32)c1` [Example 259, 5-chloro-N-((1r,4r)-4-((3-(2-cyano-5-methoxyphenyl)-2-oxo-2,3-dihydro-1H-benzo [d]imidazol-1-yl)methyl)cyclo-hexyl)-2-methylnicotinamide] here?
A: < 300 nM

Q: How did the IC50 turn out when `Cc1n[nH]c2ccc(-n3c(=O)n(C[C@H]4CC[C@H](NC(=O)c5cc(Cl)cnc5C(F)(F)F)CC4)c4ccccc43)cc12` [Example 260, 5-chloro-N-((1r,4r)-4-((3-(3-methyl-1H-indazol-5-yl)-2-oxo-2,3-dihydro-1H-benzo[d]imidazol-1-yl)methyl)cyclohexyl)-2-(trifluoromethyl)nicotinamide] was run?
A: < 300 nM

— patent US11802120B2, “Fused cyclic urea derivatives as CRHR2 antagonist” (RaQualia Pharma Inc., priority 2018, dated 2023)
